According to PMC11480411, “Mucosal sugars delineate pyrazine vs pyrazinone autoinducer signaling in Klebsiella oxytoca” (Nature Communications, 2024):
Values joined by “and” are separate entries in the source; they are usually repeats but may differ in a detail not shown here. Equal entries are not always repeated.

Columns and labels:
Format in all cases: cell-based
HRH2 = molecular target: T1, HRH2 (Homo sapiens, UniProt P25021); assay: PRESTO-Tango GPCR screen and dose-response; settings: replicate wells
T1 construct: expressed in transfected cells; host or cells: HTLA cells (HEK293 line stably expressing β-arrestin-TEV and tTA-Luciferase)
In short: (§1)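 HEK293 HTLA line (stable β-arrestin-TEV, tTA-luciferase); receptor-Tango transient transfection, PEI; 20 h compound exposure at 100 μM final; luciferase luminescence; fold vs PBS. Dose curves 10^−4–10^−15 M.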

[1] = molecular target: T2, histamine receptor H4 (HRH4) (Homo sapiens, UniProt Q9H3N8); assay: PRESTO-Tango GPCR screen and dose-response; settings: for HRH4 dose-response raw reporter signal (Fig. 5b source data): replicate wells
T2 construct: expressed in transfected cells; host or cells: HTLA cells (HEK293 line stably expressing β-arrestin-TEV and tTA-Luciferase)
In short: as §1

HRH3 = molecular target: T3, HRH3 (Homo sapiens, UniProt Q9Y5N1); assay: PRESTO-Tango GPCR screen and dose-response; settings: for HRH3 dose-response raw reporter signal (Fig. 5b source data): replicate wells
T3 construct: expressed in transfected cells; host or cells: HTLA cells (HEK293 line stably expressing β-arrestin-TEV and tTA-Luciferase)
In short: as §1

[2] = test system: 314-member panel of human G protein-coupled receptors (GPCRs); assay: PRESTO-Tango screen of 314-member human GPCR panel; settings: 100 µM, HTLA cells
Description: The PRESTO-Tango analyses were performed as previously published. Briefly, HTLA cells, a HEK293 cell line that stably expresses β-arrestin-TEV and tTA-Luciferase (a kind gift from Gilad Barnea, Brown University), were plated in 96-well tissue culture plates (Eppendorf) in DMEM containing 10% FBS and 1% Penicillin/Streptomycin. One day after plating (after reaching approximately 90% confluence), 200 ng per well GPCR-Tango plasmids[37] in 20 μL DMEM were individually mixed with 400 ng polyethylenimine (Polysciences) in an equal volume of DMEM and incubated for 20 min at room temperature before adding the transfection mixture to the HTLA cells. 16-24 h after transfection, medium was replaced with 180 μL fresh DMEM containing 1% Penicillin/Streptomycin and 10 mM HEPES and 20 μL of 3 or 3-Homo to reach a final concentration of 100 μM. Supernatants were aspirated 20 h after stimulation and 50 μl per well of Bright-Glo solution (Promega) diluted 20-fold with PBS containing 20 mM HEPES was added into each well. After 15 min incubation at room temperature, luminescence was quantified using a Spectramax i3x microplate reader (Molecular Devices). Activation fold for each sample was calculated by dividing relative luminescence units (RLU) for each condition by RLUs from PBS control. […]

T3 sequence (Q9Y5N1 whole entry): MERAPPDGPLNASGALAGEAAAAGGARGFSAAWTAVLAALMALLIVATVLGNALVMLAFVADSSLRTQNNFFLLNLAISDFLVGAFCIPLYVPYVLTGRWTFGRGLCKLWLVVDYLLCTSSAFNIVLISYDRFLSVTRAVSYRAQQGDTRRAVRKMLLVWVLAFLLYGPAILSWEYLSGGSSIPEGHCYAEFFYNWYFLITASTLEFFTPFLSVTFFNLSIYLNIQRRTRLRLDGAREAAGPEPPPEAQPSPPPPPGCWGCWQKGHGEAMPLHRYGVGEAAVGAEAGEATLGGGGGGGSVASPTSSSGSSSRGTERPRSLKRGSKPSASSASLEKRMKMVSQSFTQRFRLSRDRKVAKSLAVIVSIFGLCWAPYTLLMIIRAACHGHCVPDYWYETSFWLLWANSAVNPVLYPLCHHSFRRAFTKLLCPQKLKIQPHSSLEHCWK
T1 sequence (P25021 whole entry): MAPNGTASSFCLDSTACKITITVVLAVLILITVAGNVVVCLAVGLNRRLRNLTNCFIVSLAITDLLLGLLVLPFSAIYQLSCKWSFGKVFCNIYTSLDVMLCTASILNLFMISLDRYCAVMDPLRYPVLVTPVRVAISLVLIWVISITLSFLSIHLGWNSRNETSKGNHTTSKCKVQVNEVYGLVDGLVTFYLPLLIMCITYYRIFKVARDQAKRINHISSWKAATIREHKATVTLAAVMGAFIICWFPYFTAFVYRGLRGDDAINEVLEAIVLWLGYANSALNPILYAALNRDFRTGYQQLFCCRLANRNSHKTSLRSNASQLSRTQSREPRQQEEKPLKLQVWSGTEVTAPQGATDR
T2 sequence (Q9H3N8 whole entry): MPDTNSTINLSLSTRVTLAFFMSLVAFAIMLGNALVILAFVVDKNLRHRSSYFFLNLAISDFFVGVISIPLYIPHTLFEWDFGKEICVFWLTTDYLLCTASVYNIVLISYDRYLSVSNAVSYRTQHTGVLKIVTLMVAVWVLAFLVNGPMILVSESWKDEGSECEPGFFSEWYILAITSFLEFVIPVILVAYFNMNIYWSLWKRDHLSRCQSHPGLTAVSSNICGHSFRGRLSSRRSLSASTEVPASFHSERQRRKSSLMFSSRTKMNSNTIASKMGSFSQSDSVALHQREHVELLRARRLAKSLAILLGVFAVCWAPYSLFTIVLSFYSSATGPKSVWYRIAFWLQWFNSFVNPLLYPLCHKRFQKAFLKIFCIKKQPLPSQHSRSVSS

## CC(C)Cc1ncc(CCCCNC(=N)N)[nH]c1=O [3-Homo]
HRH2; Log(10)Conc (M) -7
  HRH2 dose-response raw reporter signal (Fig. 5b source data): 59 and 65 and 91
HRH2; Log(10)Conc (M) -8
  HRH2 dose-response raw reporter signal (Fig. 5b source data): 56 and 50 and 59
HRH2; Log(10)Conc (M) -9
  HRH2 dose-response raw reporter signal (Fig. 5b source data): 44 (2×) and 59
HRH2; Log(10)Conc (M) -10
  HRH2 dose-response raw reporter signal (Fig. 5b source data): 53 and 62 (2×)
HRH2; Log(10)Conc (M) -11
  HRH2 dose-response raw reporter signal (Fig. 5b source data): 29 and 53 and 74
HRH2; Log(10)Conc (M) -12
  HRH2 dose-response raw reporter signal (Fig. 5b source data): 50 and 65 and 53
HRH2; Log(10)Conc (M) -13
  HRH2 dose-response raw reporter signal (Fig. 5b source data): 53 and 27 and 91
HRH2; Log(10)Conc (M) -14
  HRH2 dose-response raw reporter signal (Fig. 5b source data): 41 and 77 and 68
HRH2; Log(10)Conc (M) -15
  HRH2 dose-response raw reporter signal (Fig. 5b source data): 47 and 29 and 100
[1]; HRH4, 100 µM
  GPCR activation (heatmap value): 2.481
[1]; Log(10)Conc (M) -5
  HRH4 dose-response raw reporter signal (Fig. 5b source data): 18151 and 17815
[1]; Log(10)Conc (M) -6
  HRH4 dose-response raw reporter signal (Fig. 5b source data): 6385 and 6598
[1]; Log(10)Conc (M) -7
  HRH4 dose-response raw reporter signal (Fig. 5b source data): 1365 and 1430
[1]; Log(10)Conc (M) -8
  HRH4 dose-response raw reporter signal (Fig. 5b source data): 793 and 758
[1]; Log(10)Conc (M) -9
  HRH4 dose-response raw reporter signal (Fig. 5b source data): 522 and 575
[1]; Log(10)Conc (M) -10
  HRH4 dose-response raw reporter signal (Fig. 5b source data): 463 and 475
[1]; Log(10)Conc (M) -11
  HRH4 dose-response raw reporter signal (Fig. 5b source data): 357 and 469
[1]; Log(10)Conc (M) -12
  HRH4 dose-response raw reporter signal (Fig. 5b source data): 542 and 504
[1]; Log(10)Conc (M) -13
  HRH4 dose-response raw reporter signal (Fig. 5b source data): 404 and 363
[1]; Log(10)Conc (M) -14
  HRH4 dose-response raw reporter signal (Fig. 5b source data): 351 and 360
[1]; Log(10)Conc (M) -15
  HRH4 dose-response raw reporter signal (Fig. 5b source data): 333 and 448
[1]; PRESTO-Tango dose-response, n = 3, read-out: EC50 (HRH4 activation)
  EC50: 2700 nM
HRH3; HRH3, 100 µM
  GPCR activation (heatmap value): -0.5013
HRH3; Log(10)Conc (M) -4
  HRH3 dose-response raw reporter signal (Fig. 5b source data): 262 and 192 and 404
HRH3; Log(10)Conc (M) -5
  HRH3 dose-response raw reporter signal (Fig. 5b source data): 245 and 283 and 383
HRH3; Log(10)Conc (M) -6
  HRH3 dose-response raw reporter signal (Fig. 5b source data): 192 and 292 and 463
HRH3; Log(10)Conc (M) -7
  HRH3 dose-response raw reporter signal (Fig. 5b source data): 286 and 312 and 310
HRH3; Log(10)Conc (M) -8
  HRH3 dose-response raw reporter signal (Fig. 5b source data): 174 and 312 and 371
HRH3; Log(10)Conc (M) -9
  HRH3 dose-response raw reporter signal (Fig. 5b source data): 227 and 248 and 307
HRH3; Log(10)Conc (M) -10
  HRH3 dose-response raw reporter signal (Fig. 5b source data): 124 and 254 and 251
HRH3; Log(10)Conc (M) -11
  HRH3 dose-response raw reporter signal (Fig. 5b source data): 177 and 189 and 218
HRH3; Log(10)Conc (M) -12
  HRH3 dose-response raw reporter signal (Fig. 5b source data): 112 and 153 and 198
HRH3; Log(10)Conc (M) -13
  HRH3 dose-response raw reporter signal (Fig. 5b source data): 130 and 206 and 248
HRH3; Log(10)Conc (M) -14
  HRH3 dose-response raw reporter signal (Fig. 5b source data): 97 and 162 and 233
HRH3; Log(10)Conc (M) -15
  HRH3 dose-response raw reporter signal (Fig. 5b source data): 150 and 124 (2×)
[2]
  selectivity across the GPCR panel: selective agonists for histamine receptor H4
